Test results from patent US10590100B2, “Benzofuran derivatives for the treatment of CNS and other disorders” (WARNER BABCOCK INSTITUTE FOR GREEN CHEMISTRY, priority 2015, dated 2020).

What was measured:
Assay type in all cases: biochemical
[1] = target: T1, zinc-induced Aβ42 aggregates (Homo sapiens, UniProt P05067); assay: Bis-ANS fluorescence assay of disaggregation of zinc-induced Aβ42 aggregates; details: for EC50: Aβ42 15 μM, bis-ANS 15 μM, Tris-buffered saline, with 15 μM Zn2+
T1 construct: 15 μM Aβ42 peptide in TrisHCl—NaCl buffer
T1 sequence (P05067 672-713 limits assumed): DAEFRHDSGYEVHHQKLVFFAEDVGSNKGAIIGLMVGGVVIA
Experimental: Bis-ANS was used as a fluorescent marker for Aβ42 aggregation and disaggregation so as to determine the efficacy, EC50, of each test compound in the presence or absence of zinc(II). Baseline fluorescence was established by monitoring the fluorescence of 15 μM bis-ANS in a TrisHCl-NaCl buffer (TrisHCl-NaCl buffer: 0.50 mM TrisHCl, 1.50 mM NaCl, pH 7.4) that contains 15 μM Aβ42. After 5 minutes, Zn(II) (as zinc(II) sulfate, 15 μM final concentration) was added to the Aβ42 solution, and the fluorescence intensity monitored for 24-40 minutes. Fluorescence increases following the addition of Zn(II) during the aggregation period. After the aggregation period, varying concentrations (60, 15, 3.75, 0.938, 0.234, or 0 μM final concentration) of a test compound were added, and the fluorescence intensity again monitored until it plateaus, typically 20-24 min. […] Fluorescence intensities were determined at 390 nm excitation wavelength/490 nm emission wavelength with a 475 nm cutoff. […] The responses I0-If, were calculated as the difference in the final fluorescent intensity If, c at the end of the assay for each concentration as compared to the final intensity I0 determined for the sample with no added derivative. The responses were normalized to the maximum response […] which is the final fluorescent intensity of the sample containing 60 μM test compound, Normalized response=(I0-If)/(I0-[…]). The fluorescent intensities were then fit to a 4-parameter sigmoidal logistic function to determine EC50. In the presence of soluble Aβ42, zinc(II) induces aggregation within milliseconds. This aggregation is detected by an increase in bis-ANS fluorescence. Disaggregation of zinc-dependent aggregates can be detected by a decrease in the fluorescence of bis-ANS in the assay. FIG. 1 depicts the zinc(II) induced Aβ42 aggregation and the disaggregation by BC-147 of the zinc-induced aggregates, measured by bis-ANS fluorescence assay.

[2] = target: T2, zinc-independent Aβ42 aggregates (Homo sapiens, UniProt P05067); assay: Bis-ANS fluorescence assay of disaggregation of zinc-independent Aβ42 aggregates; details: for EC50: Aβ42 15 μM, bis-ANS 15 μM, Tris-buffered saline, without Zn2+; for Change in bis-ANS fluorescence after addition of compound to zinc-independent Aβ42 aggregates: 15 μM Aβ42, no Zn2+, compound at 60.0 to 0.234 μM (FIG. 2)
T2 construct: 15 μM Aβ42 peptide in TrisHCl—NaCl buffer
T2 sequence (P05067 672-713 limits assumed): as above
Experimental: Bis-ANS was used as a fluorescent marker for Aβ42 aggregation and disaggregation so as to determine the efficacy, EC50, of each test compound in the presence or absence of zinc(II). Baseline fluorescence was established by monitoring the fluorescence of 15 μM bis-ANS in a TrisHCl-NaCl buffer (TrisHCl-NaCl buffer: 0.50 mM TrisHCl, 1.50 mM NaCl, pH 7.4) that contains 15 μM Aβ42. After 5 minutes, Zn(II) (as zinc(II) sulfate, 15 μM final concentration) was added to the Aβ42 solution, and the fluorescence intensity monitored for 24-40 minutes. Fluorescence increases following the addition of Zn(II) during the aggregation period. After the aggregation period, varying concentrations (60, 15, 3.75, 0.938, 0.234, or 0 μM final concentration) of a test compound were added, and the fluorescence intensity again monitored until it plateaus, typically 20-24 min. […] Fluorescence intensities were determined at 390 nm excitation wavelength/490 nm emission wavelength with a 475 nm cutoff. […] The responses I0-If, were calculated as the difference in the final fluorescent intensity If, c at the end of the assay for each concentration as compared to the final intensity I0 determined for the sample with no added derivative. The responses were normalized to the maximum response […] which is the final fluorescent intensity of the sample containing 60 μM test compound, Normalized response=(I0-If)/(I0-[…]). The fluorescent intensities were then fit to a 4-parameter sigmoidal logistic function to determine EC50. A representative example of disaggregation of spontaneously formed, zinc-independent Aβ42 aggregates by a test compound, BC-147, is given in FIG. 2. In the absence of zinc(II), soluble Aβ42 undergoes zinc-independent aggregation more slowly than aggregation in the presence of zinc(II). This spontaneous, zinc-independent aggregation of Aβ42 is detected by an increase in bis-ANS fluorescence. […] FIG. 2 depicts the disaggregation by BC-147 of the spontaneously formed, zinc-independent Aβ42 aggregates.

[3] = target: T3, amylin aggregates (Homo sapiens, UniProt P10997); assay: Bis-ANS fluorescence assay of disaggregation of amylin aggregates; details: 15 μM amylin; for EC50: bis-ANS 15 μM, Tris-buffered saline, compound added after 24 hr aggregation
T3 construct: Amylin (15 μM) in TrisHCl—NaCl buffer was allowed to aggregate for 24 hr
T3 sequence (P10997 34-70 limits assumed): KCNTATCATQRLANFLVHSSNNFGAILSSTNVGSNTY
Experimental: Amylin (15 μM) in TrisHCl—NaCl buffer was allowed to aggregate for 24 hr, while monitoring the fluorescence of bis-ANS (15 μM) as a marker of amylin aggregation. Typically, the fluorescence increases during the aggregation period. After the aggregation period, varying concentrations (60, 15, 3.75, 0.938, 0.234, or 0 μM final concentration) of a test compound were then added to the sample, and the fluorescence intensity monitored until it plateaus, typically an additional 20-24 hr. Controls were simultaneously run in which the test compound was added to a sample that contained Bis-ANS but no amylin so as to determine any interfering intrinsic fluorescence of the test compound itself (see Table 1).
A series of assays was also carried out so as to determine the EC50 for EGCG, by addition of 60, 15, 3.75, 0.938, 0.234, or 0 μM EGCG after 24 hours, similarly to the methods used to assay the test compounds.

EC50 [1] | EC50 [2] | EC50 [3] | Change in bis-ANS fluorescence after addition of compound to zinc-induced Aβ42 aggregates ([1]; 15 μM Aβ42, 15 μM Zn2+, compound at 60.0, 15.0, 3.75, 0.938 or 0.234 μM (FIG. 1)) | Change in bis-ANS fluorescence after addition of compound to zinc-independent Aβ42 aggregates [2] | Change in bis-ANS fluorescence after addition of compound to amylin aggregates ([3]; compound at 60.0, 15.0, 3.75, 0.938 or 0.234 μM added at about 1440 min (FIG. 5)) | Compound
1710 nM | 3010 nM | 310 nM |  |  |  | COc1ccc(N(c2ccc(OC)cc2)c2ccc(-c3cc4ccc(C=C(C#N)C(=O)O)cc4o3)cc2)cc1 [BC-156, 3-(2-(4-(bis(4-methoxyphenyl)amino)phenyl)benzofuran-6-yl)-2-cyanoacrylic acid]
2230 nM | 1760 nM | 1830 nM |  |  |  | N#CC(=Cc1ccc2cc(-c3ccc(N(c4ccccc4)c4ccccc4)cc3)oc2c1)C(=O)NCc1ccccn1 [BC-163, 2-cyano-3-(2-(4-(diphenylamino)phenyl)benzofuran-6-yl)-N-(pyridin-2-ylmethyl)acrylamide]
660 nM | 500 nM | 150 nM |  |  |  | N#CC(=Cc1ccc2cc(-c3ccc(N(c4ccccc4)c4ccccc4)cc3)oc2c1)C(=O)O [BC-149, 2-cyano-3-(2-(4-(diphenylamino)phenyl)benzofuran-6-yl)acrylic acid]
3760 nM | 11500 nM | 190 nM | decrease in bis-ANS fluorescence | decrease in bis-ANS fluorescence |  | N#CC(=Cc1ccc(-c2cc3ccc(N(c4ccccc4)c4ccccc4)cc3o2)cc1)C(=O)O [BC-147, 2-cyano-3-(4-(6-(diphenylamino)benzofuran-2-yl)phenyl)acrylic acid]
 |  | 2090 nM |  |  |  | N#CC(C#N)=Cc1ccc2cc(-c3ccc(N(c4ccccc4)c4ccccc4)cc3)oc2c1 [BC-154, 2-((2-(4-(diphenylamino)phenyl)benzofuran-6-yl)methylene)malononitrile]
2700 nM | 1110 nM | 800 nM |  |  |  | N#CC(=Cc1ccc2cc(-c3ccc(N(c4ccccc4)c4ccccc4)cc3)oc2c1)C(N)=O [BC-152, 2-cyano-3-(2-(4-(diphenylamino)phenyl)benzofuran-6-yl)acrylamide]
1090 nM | 460 nM | 180 nM |  |  |  | NC(=O)C(=Cc1ccc2cc(-c3ccc(N(c4ccccc4)c4ccccc4)cc3)oc2c1)C(N)=O [BC-155, 2-((2-(4-(diphenylamino)phenyl)benzofuran-6-yl)methylene)malonamide]
 |  | 1730 nM |  |  | decrease in bis-ANS fluorescence | CC(C)(C)c1ccc(N(c2ccc(-c3cc4ccc(C=C(C#N)C(=O)O)cc4o3)cc2)c2ccc(C(C)(C)C)cc2)cc1 [BC-158, 3-(2-(4-(bis(4-(tert-butyl)phenyl)amino)phenyl)benzofuran-6-yl)-2-cyanoacrylic acid]
4120 nM | 3220 nM | 2540 nM |  |  |  | COC(=O)C(C#N)=Cc1ccc2cc(-c3ccc(N(c4ccccc4)c4ccccc4)cc3)oc2c1 [BC-161, methyl 2-cyano-3-(2-(4-(diphenylamino)phenyl)benzofuran-6-yl)acrylate]
 |  | 610 nM |  |  |  | N#CC(=Cc1ccc2cc(-c3ccc(N4CCCCC4)cc3)oc2c1)C(=O)O [BC-166, 2-cyano-3-(2-(4-(piperidin-1-yl)phenyl)benzofuran-6-yl)acrylic acid]
 |  | 140 nM |  |  |  | CN(c1ccccc1)c1ccc(-c2cc3ccc(C=C(C#N)C(=O)O)cc3o2)cc1 [BC-175, 2-cyano-3-(2-(4-(methyl(phenyl)amino)phenyl)benzofuran-6-yl)acrylic acid]
46100 nM |  |  |  | no effect |  | O=C(O)CN(CCN(CC(=O)O)CC(=O)O)CC(=O)O [EDTA, reference compound]
4930 nM | 610 nM | 460 nM |  |  |  | N#CC(=Cc1ccc2oc(-c3ccc(N(c4ccccc4)c4ccccc4)cc3)cc2c1)C(=O)O [BC-151, 2-cyano-3-(2-(4-(diphenylamino)phenyl)benzofuran-5-yl)acrylic acid]
540 nM | 4900 nM | 520 nM |  |  |  | N#CC(=Cc1cc2ccc(N(c3ccccc3)c3ccccc3)cc2o1)C(=O)O [BC-146, 2-cyano-3-(6-(diphenylamino)benzofuran-2-yl)acrylic acid]
 |  | 210 nM |  |  |  | CCN(CC)c1ccc(-c2cc3ccc(C=C(C#N)C(=O)O)cc3o2)cc1 [BC-173, 2-cyano-3-(2-(4-(diethylamino)phenyl)benzofuran-6-yl)acrylic acid]
 |  | 840 nM |  |  |  | N#CC(=Cc1ccc2cc(-c3ccc(N4CCOCC4)cc3)oc2c1)C(=O)O [BC-169, 2-cyano-3-(2-(4-morpholinophenyl)benzofuran-6-yl)acrylic acid]
2220 nM | 5590 nM | 1930 nM |  |  |  | N#CC(=Cc1ccc2cc(-c3ccc(N(c4cccnc4)c4cccnc4)cc3)oc2c1)C(=O)O [BC-159, 2-cyano-3-(2-(4-(di(pyridin-3-yl)amino)phenyl)benzofuran-6-yl)acrylic acid]

Compound | EC50 [1] | EC50 [2] | EC50 [3] | Change in bis-ANS fluorescence after addition of compound to zinc-induced Aβ42 aggregates ([1]; 15 μM Aβ42, 15 μM Zn2+, compound at 60.0, 15.0, 3.75, 0.938 or 0.234 μM (FIG. 1)) | Change in bis-ANS fluorescence after addition of compound to zinc-independent Aβ42 aggregates [2] | Change in bis-ANS fluorescence after addition of compound to amylin aggregates ([3]; compound at 60.0, 15.0, 3.75, 0.938 or 0.234 μM added at about 1440 min (FIG. 5))
O=C(O[C@@H]1Cc2c(O)cc(O)cc2O[C@@H]1c1cc(O)c(O)c(O)c1)c1cc(O)c(O)c(O)c1 [EGCG, Epigallocatechin gallate, reference compound] |  |  | 860 nM |  |  | 
